# Measurements taken from patent US9289496B2, “Lipid dipeptide and gel” (Nissan Chemical Industries, Ltd., priority 2008, dated 2016).
# Residues, ends and D or L forms follow the SMILES beside them.
# Key:
# Assay type in all cases: physicochemical
# [1] = Evaluation of gelation of free N-palmitoyl-Gly-His in glycerin solution
# Description: (§1) Free N-palmitoyl-Gly-His prepared in Example 4 was placed into a screw tube (Maruemu No. 1, manufactured by Maruemu Corp.). Each of the glycerin solutions having various concentrations shown in Table 5 was added into the screw tube so as to have a free N-palmitoyl-Gly-His concentration of 0.2%, 0.25%, 0.5%, or 1% (w/v). The mixture was heated at 100° C. with a constant temperature heat block (manufactured by Nippon Genetics Co., Ltd.), and then allowed to stand at room temperature.
# (§2) In Table, a sample that formed a gel is shown as “O”, a sample that partially formed a gel is shown as “A”, and a sample without evaluation is shown as “-”.
# [2] = Evaluation of gelation of free N-palmitoyl-Gly-His in solution containing inorganic salt, amino acid or organic substance
# Description: as §1, with “An aqueous solution dissolving each additive described” for “Each of the glycerin solutions having various concentrations shown”, “7” for “5”, “0.5%” for “0.2%, 0.25%, 0.5%,”
# as §2
# [3] = Gelation of free N-palmitoyl-Gly-His in 65% (w/w) propylene glycol aqueous solution containing lactic acid and potassium lactate; conditions: 65% (w/w) propylene glycol aqueous solution with 5% (w/w) potassium lactate:lactic acid (95:5)
# Description: (§3) Free N-palmitoyl-Gly-His (25 mg) obtained in Example 4 was placed in a screw tube (Maruemu Corp., No. 7). Sixty-five percent (w/w) propylene glycol aqueous solution was added so as to have a concentration of 0.25% (w/v), and a mixture of potassium lactate:lactic acid (95:5) was further added so as to have a concentration of 5% (w/w) with respect to the whole solution. The mixture was heated with a dry bath incubator (manufactured by First Gene) at 75° C. for 10 minutes. The obtained solution was transferred into a spray vial (Maruemu Corp., No. 3L), and allowed to cool to room temperature.
# as §3, with “N-palmitoyl-Gly-His (80” for “N-palmitoyl-Gly-His (25”, “placed into” for “placed in”, “of 0.2%” for “of 0.25%”, “at 93°” for “at 75°”, “for 5” for “for 10”
# [4] = Gelation test when adding methylparaben; conditions: aqueous solution of 0.2 wt % methylparaben; 0.25, 0.5 or 1.0 wt % tested
# Description: An aqueous solution of 0.2 wt % methylparaben was prepared, and into the solution, free N-palmitoyl-Gly-His prepared in Example 4 was added so as to have a concentration of 0.25, 0.5, or 1.0 wt % to prepare a suspended mixture solution. Each mixture solution was heated at 95 to 99° C. until dissolved (for 6 to 25 minutes), and then allowed to cool to room temperature.
# [5] = Preparation of film from sheet-shaped gel; conditions: 0.5% (w/v); 30%, 20% and 10% glycerin aqueous solutions; dissolved at 80° C.
# Description: Into a screw tube (Maruemu No. 3, manufactured by Maruemu Corp.), 3 mg of N-palmitoyl-Gly-His.TFA salt prepared in Example 1 was placed. Into the screw tube, 0.6 ml of Japanese Pharmacopoeia purified water (Kyoei Pharmaceutical Industries, Ltd.) was added so as to have a concentration of 0.5% (w/v). The whole was heated at 105° C. for 5 minutes, and then allowed to stand at room temperature to prepare a gel of 0.5% N-palmitoyl-Gly-His.TFA salt.
# Into the gel, 2 ml of Japanese Pharmacopoeia purified water (Kyoei Pharmaceutical Industries, Ltd.) was further added and sheet formation was observed from a wide view for 72 hours.
# Using 10 mg of free N-palmitoyl-Gly-His, each 2.0 mL of 30%, 20%, and 10% glycerin aqueous solutions was added so as to become a 0.5% (w/v) solution, and the mixture solution was heated and dissolved at 80° C. The solution was placed in a glass petri dish having an inner diameter of 2.2 cm and allowed to cool at room temperature. […] Then, the obtained gel was transferred onto a glass substrate.
# [6] = Usable mediums: solubility and gel formation, conventional art vs palmitoyl-Gly-His; conditions: wide variety of mediums including 50 mM citrate buffer pH 5, 50 mM acetate buffer pH 5, ethanol/water with 80% or more ethanol
compound,measurement,setting,value
"CCCCCCCCCCCCCCCC(=O)NCC(=O)N[C@@H](Cc1c[nH]cn1)C(=O)O [Example 4, N-Palmitoyl-Gly-His] (HELM PEPTIDE1{[CCCCCCCCCCCCCCCC(=O)[*:2]].G.H}$$$$V2.0)",Gelation,"[1]; 0.2% (w/v), mass fraction glycerin/water + glycerin 0.1",Δ
same,Gelation,"[1]; 0.2% (w/v), mass fraction glycerin/water + glycerin 0.3",Δ
same,Gelation,"[1]; 0.2% (w/v), mass fraction glycerin/water + glycerin 0.5",◯
same,Gelation,"[1]; 0.2% (w/v), mass fraction glycerin/water + glycerin 0.6",◯
same,Gelation,"[1]; 0.2% (w/v), mass fraction glycerin/water + glycerin 0.7",◯
same,Gelation,"[1]; 0.25% (w/v), mass fraction glycerin/water + glycerin 0.1",◯
same,Gelation,"[1]; 0.25% (w/v), mass fraction glycerin/water + glycerin 0.3",◯
same,Gelation,"[1]; 0.25% (w/v), mass fraction glycerin/water + glycerin 0.4",◯
same,Gelation,"[1]; 0.25% (w/v), mass fraction glycerin/water + glycerin 0.5",◯
same,Gelation,"[1]; 0.25% (w/v), mass fraction glycerin/water + glycerin 0.6",◯
same,Gelation,"[1]; 0.25% (w/v), mass fraction glycerin/water + glycerin 0.7",◯
same,Gelation,"[1]; 0.5% (w/v), mass fraction glycerin/water + glycerin 0.1",◯
same,Gelation,"[1]; 0.5% (w/v), mass fraction glycerin/water + glycerin 0.3",◯
same,Gelation,"[1]; 0.5% (w/v), mass fraction glycerin/water + glycerin 0.4",◯
same,Gelation,"[1]; 0.5% (w/v), mass fraction glycerin/water + glycerin 0.5",◯
same,Gelation,"[1]; 0.5% (w/v), mass fraction glycerin/water + glycerin 0.6",◯
same,Gelation,"[1]; 0.5% (w/v), mass fraction glycerin/water + glycerin 0.7",◯
same,Gelation,"[1]; 1.0% (w/v), mass fraction glycerin/water + glycerin 0.1",◯
same,Gelation,"[1]; 1.0% (w/v), mass fraction glycerin/water + glycerin 0.3",◯
same,Gelation,"[1]; 1.0% (w/v), mass fraction glycerin/water + glycerin 0.4",◯
same,Gelation,"[1]; 1.0% (w/v), mass fraction glycerin/water + glycerin 0.5",◯
same,Gelation,"[1]; 1.0% (w/v), mass fraction glycerin/water + glycerin 0.6",◯
same,Gelation,"[1]; 1.0% (w/v), mass fraction glycerin/water + glycerin 0.7",◯
same,Gelation,"[2]; 0.5% (w/v), aqueous solution of Alanine 0.1 wt %",◯
same,Gelation,"[2]; 0.5% (w/v), aqueous solution of Aspartic acid 0.27 wt %",◯
same,Gelation,"[2]; 0.5% (w/v), aqueous solution of Glycine 0.1 wt %",◯
same,Gelation,"[2]; 0.5% (w/v), aqueous solution of KCl 0.1 wt %",Δ
same,Gelation,"[2]; 0.5% (w/v), aqueous solution of KCl 0.5 wt %",Δ
same,Gelation,"[2]; 0.5% (w/v), aqueous solution of Lysine hydrochloride 0.1 wt %",Δ
same,Gelation,"[2]; 0.5% (w/v), aqueous solution of NaCl 0.1 wt %",Δ
same,Gelation,"[2]; 0.5% (w/v), aqueous solution of NaCl 0.5 wt %",◯
same,Gelation,"[2]; 0.5% (w/v), aqueous solution of Phenoxyethanol 0.25 wt %",◯
same,Gelation,"[2]; 1.0% (w/v), aqueous solution of KCl 0.1 wt %",◯
same,Gelation,"[2]; 1.0% (w/v), aqueous solution of KCl 0.5 wt %",◯
same,Gelation,"[2]; 1.0% (w/v), aqueous solution of NaCl 0.1 wt %",◯
same,Gelation,"[2]; 1.0% (w/v), aqueous solution of NaCl 0.5 wt %",◯
same,Gelation,"[2]; 1.0% (w/v), aqueous solution of Phenoxyethanol 0.25 wt %",◯
same,Gelation,"[3]; 0.2% (w/v), heated 93° C., 5 minutes",gelation
same,Gelation,"[3]; 0.25% (w/v), heated 75° C., 10 minutes",gelation
same,Concentration at which a transparent gel was obtained,[4],≥ 0.5 wt %
same,Gelation,[5],gelation was observed in each case
same,Gel formation,[6],can form a gel
